In ChEMBL document CHEMBL1201862, “PubChem BioAssay data set” (2004):
Active and inactive are the calls of the source.

How the values were obtained:
[1] = target: Fructose-bisphosphate aldolase (Mycobacterium tuberculosis, UniProt P9WQA3); assay: Fluorescence-based biochemical high throughput dose response assay for inhibitors of the fructose-bisphosphate aldolase (FBA) of M. tuberculosis.; type: functional
[2] = target: Luciferin 4-monooxygenase (Photinus pyralis, UniProt P08659); assay: Counter Screen for Luciferase-based Assay Positives. [Related pubchem assays: 620, 618, 411 ]
HT-1080 = assay: HT1080 cell viability loss – fluorescence readout (AID 620); type: functional, cell-based; conditions: Homo sapiens
[3] = target: SWI/SNF-related matrix-associated actin-dependent regulator of chromatin subfamily A member 2 (Homo sapiens, UniProt P51531); assay: Luminescence-based cell-based high throughput dose response assay to identify activators of the function of SWI/SNF related, matrix associated, actin dependent regulator of chromatin, subfamily a, member 2 (SMARCA2, BRM).; type: functional
[4] = Counterscreen for activators of the function of SWI/SNF related, matrix associated, actin dependent regulator of chromatin, subfamily a, member 2 (SMARCA2, BRM): Luminescence-based cell-based high throughput dose response assay to identify non-selective compounds using the VP16 reporter assay.; type: functional
[5] = T. cruzi growth inhibition in host cells, dose response, cell-based, plate reader, dry powder, set 2 (AID 652275); type: functional
[6] = general mammalian cell viability loss – inhibitor set, cherry-pick, set 2, cytotoxicity control for miR-122 modulator project, dose response (AID 720697); type: functional, cell-based
[7] = Trypanosoma cruzi growth suppression in host cells – NIH3T3 host cells, beta-gal luminescence, confirmation (AID 2044); type: functional, cell-based;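 note: intracellular parasites grown in NIH/3T3 mouse fibroblasts as host cells; luminescent beta-galactosidase reporter signal from transgenic T. cruzi replicating inside host cells; inhibitors lower the luminescence signal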
[8] = target: Disintegrin and metalloproteinase domain-containing protein 17 (Homo sapiens, UniProt P78536); assay: inhibition of ADAM17 substrate cleavage – biochemical, quenched FRET substrate, counter-screen for ADAM10 exosite inhibitor project, dose response (AID 743253)
[9] = potency of ADAM10 substrate cleavage blockers – biochemical, QFRET, dose response (AID 743254);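 note: ADAM10 enzyme with the DM2 quenched FRET peptide as substrate; EDANS fluorescence gain as the protease cuts the substrate; inhibitor potency against ADAM10 proteolytic activity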
[10] = NIH3T3 cell viability loss – ATP luminescence, mouse fibroblasts, counter-screen, dose response (AID 2010); type: functional, cell-based;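 note: cells exposed to compound for about 90 hours before reading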
[11] = target: Voltage-dependent T-type calcium channel subunit alpha-1H (Homo sapiens, UniProt O95180); type: functional;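 note: channel activity triggered by adding a high calcium stimulation buffer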
[12] = inhibition of bursicon-driven LGR2 cAMP signaling – cell-based, HEK293, CRE-luciferase reporter, cherry pick, dose response (AID 743342); type: functional
[13] = A549 cell cytotoxicity, dose response, cytotoxicity control, plate reader, cherry-pick, antagonist series (AID 743412); type: functional, cell-based
[14] = viability loss in HEK293 cells – cell-based, plate reader, cherry-picked samples, cytotoxicity control, dose response (AID 743446); type: functional
[15] = target: Tyrosyl-DNA phosphodiesterase 2 (Homo sapiens, UniProt O95551); assay: potency against TDP2 phosphodiesterase activity – biochemical, epi absorbance, IC50, dose response (AID 743297)
[16] = target: T1, Tyrosine-protein phosphatase non-receptor type 7 (Homo sapiens, UniProt P35236); assay: HePTP tyrosine phosphatase activity blockers – biochemical, absorbance, leukemia target, primary screen (AID 521); type: functional
T1 sequence (P35236 whole entry): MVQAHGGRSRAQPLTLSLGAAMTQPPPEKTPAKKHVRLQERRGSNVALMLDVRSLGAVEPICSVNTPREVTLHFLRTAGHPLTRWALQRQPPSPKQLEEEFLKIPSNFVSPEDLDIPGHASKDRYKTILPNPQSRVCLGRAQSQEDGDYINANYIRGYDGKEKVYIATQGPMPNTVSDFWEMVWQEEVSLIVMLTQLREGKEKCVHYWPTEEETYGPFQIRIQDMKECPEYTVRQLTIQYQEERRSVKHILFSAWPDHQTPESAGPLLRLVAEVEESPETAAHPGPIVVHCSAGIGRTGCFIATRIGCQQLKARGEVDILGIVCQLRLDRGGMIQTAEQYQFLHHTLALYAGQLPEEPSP

Bcl-2-like protein 1 = Bcl-2-like protein 1 (Homo sapiens, UniProt Q07817); assay: blockers of BCLXL peptide binding – biochemical, fluorescence polarization, 1536-well, selectivity assay for MCL1 inhibitor project, dose response (AID 2218)
[17] = target: T2, Induced myeloid leukemia cell differentiation protein Mcl-1 (Homo sapiens, UniProt Q07820); type: functional
[18] = target: T2, Induced myeloid leukemia cell differentiation protein Mcl-1; assay: blockers of MCL1 binding to BIM peptide – biochemical, fluorescence polarization, BIM-BH3 peptide, 1536-well, dose response (AID 2217)
[19] = target: T3, Carboxy-terminal domain RNA polymerase II polypeptide A small phosphatase 1 (Homo sapiens, UniProt Q9GZU7); assay: CTDSP1 inhibitors, concentration-response, biochemical, absorbance readout, ultra-high-throughput screen actives (AID 540297); type: functional
T3 sequence (Q9GZU7 whole entry): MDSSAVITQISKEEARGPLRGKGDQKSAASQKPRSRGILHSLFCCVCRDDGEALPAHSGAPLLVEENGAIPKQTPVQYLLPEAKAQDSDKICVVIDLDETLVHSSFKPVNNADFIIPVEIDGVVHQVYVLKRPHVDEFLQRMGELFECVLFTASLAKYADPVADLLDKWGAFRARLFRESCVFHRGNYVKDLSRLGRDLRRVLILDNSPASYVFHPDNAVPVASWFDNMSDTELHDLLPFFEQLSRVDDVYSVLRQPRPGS

[20] = target: T4, Small ubiquitin-related modifier 1 (Homo sapiens, UniProt P63165); assay: SUMO1 protein interaction blockers, potency – biochemical, fluorescence polarization, uHTS hits, dose response (AID 624382); type: functional; conditions: read-out: IC50_Mean
[21] = target: T4, Small ubiquitin-related modifier 1; assay: SUMO1 protein-protein binding blockers, potency – biochemical, FRET, dose response (AID 624383); type: functional; conditions: read-out: IC50_Mean
Beta-lactamase [22] = target: T5, Beta-lactamase (Pseudomonas aeruginosa, UniProt Q79MP6); assay: […] counterscreen for selective VIM-2 inhibitors: dose response biochemical high throughput screening assay to identify inhibitors of IMP-1 metallo-beta-lactamase.
Beta-lactamase [23] = target: T5, Beta-lactamase; assay: inhibition of IMP-1 beta-lactamase activity – biochemical, epi-absorbance, selectivity assay for VIM-2 inhibitor project, dose response (AID 1920)
Beta-lactamase [24] = target: Beta-lactamase (Salmonella choleraesuis (strain SC-B67), UniProt Q5J463); assay: Epi-absorbance-based counterscreen for selective VIM-2 inhibitors: dose response biochemical high throughput screening assay to identify inhibitors of TEM-1 serine-beta-lactamase.
Beta-lactamase (Salmonella choleraesuis (strain SC-B67), UniProt Q5J463), sequence (Q5J463 whole entry): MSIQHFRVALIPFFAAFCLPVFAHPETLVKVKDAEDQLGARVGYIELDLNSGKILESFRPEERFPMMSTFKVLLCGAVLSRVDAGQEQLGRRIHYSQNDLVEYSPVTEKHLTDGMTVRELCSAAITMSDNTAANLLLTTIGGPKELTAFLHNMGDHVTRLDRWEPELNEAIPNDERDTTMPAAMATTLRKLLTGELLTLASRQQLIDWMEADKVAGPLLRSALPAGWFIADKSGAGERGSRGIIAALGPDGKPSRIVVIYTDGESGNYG

T5 sequence (Q79MP6 whole entry): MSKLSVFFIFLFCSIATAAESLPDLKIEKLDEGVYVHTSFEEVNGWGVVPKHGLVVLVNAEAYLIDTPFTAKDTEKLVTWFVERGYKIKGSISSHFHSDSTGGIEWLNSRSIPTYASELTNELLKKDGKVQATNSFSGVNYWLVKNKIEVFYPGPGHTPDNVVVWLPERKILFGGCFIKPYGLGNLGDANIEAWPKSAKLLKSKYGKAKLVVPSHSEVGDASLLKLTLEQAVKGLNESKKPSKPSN
T4 sequence (P63165 whole entry): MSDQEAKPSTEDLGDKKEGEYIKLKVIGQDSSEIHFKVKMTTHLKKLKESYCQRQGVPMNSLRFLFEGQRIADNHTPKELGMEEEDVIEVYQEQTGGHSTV
T2 sequence (Q07820 whole entry): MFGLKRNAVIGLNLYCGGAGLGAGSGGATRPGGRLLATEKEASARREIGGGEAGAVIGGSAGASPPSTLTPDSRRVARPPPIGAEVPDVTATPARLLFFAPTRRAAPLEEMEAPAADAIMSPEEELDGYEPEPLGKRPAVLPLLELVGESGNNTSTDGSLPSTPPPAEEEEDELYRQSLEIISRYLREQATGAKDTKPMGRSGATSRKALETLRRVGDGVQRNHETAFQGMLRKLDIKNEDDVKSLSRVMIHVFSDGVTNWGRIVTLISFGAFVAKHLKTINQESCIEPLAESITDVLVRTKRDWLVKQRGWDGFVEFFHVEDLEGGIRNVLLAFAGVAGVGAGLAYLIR
Fructose-bisphosphate aldolase, sequence (P9WQA3 whole entry): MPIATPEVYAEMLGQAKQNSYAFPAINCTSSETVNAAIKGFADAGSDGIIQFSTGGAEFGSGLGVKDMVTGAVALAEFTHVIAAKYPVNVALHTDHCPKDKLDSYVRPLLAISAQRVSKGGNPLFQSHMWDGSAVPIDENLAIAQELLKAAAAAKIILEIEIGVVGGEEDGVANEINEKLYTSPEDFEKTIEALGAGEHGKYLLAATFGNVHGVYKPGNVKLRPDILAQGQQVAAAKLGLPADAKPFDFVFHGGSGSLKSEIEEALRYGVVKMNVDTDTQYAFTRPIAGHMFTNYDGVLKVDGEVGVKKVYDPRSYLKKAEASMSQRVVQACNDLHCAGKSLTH
Voltage-dependent T-type calcium channel subunit alpha-1H, sequence (O95180 whole entry): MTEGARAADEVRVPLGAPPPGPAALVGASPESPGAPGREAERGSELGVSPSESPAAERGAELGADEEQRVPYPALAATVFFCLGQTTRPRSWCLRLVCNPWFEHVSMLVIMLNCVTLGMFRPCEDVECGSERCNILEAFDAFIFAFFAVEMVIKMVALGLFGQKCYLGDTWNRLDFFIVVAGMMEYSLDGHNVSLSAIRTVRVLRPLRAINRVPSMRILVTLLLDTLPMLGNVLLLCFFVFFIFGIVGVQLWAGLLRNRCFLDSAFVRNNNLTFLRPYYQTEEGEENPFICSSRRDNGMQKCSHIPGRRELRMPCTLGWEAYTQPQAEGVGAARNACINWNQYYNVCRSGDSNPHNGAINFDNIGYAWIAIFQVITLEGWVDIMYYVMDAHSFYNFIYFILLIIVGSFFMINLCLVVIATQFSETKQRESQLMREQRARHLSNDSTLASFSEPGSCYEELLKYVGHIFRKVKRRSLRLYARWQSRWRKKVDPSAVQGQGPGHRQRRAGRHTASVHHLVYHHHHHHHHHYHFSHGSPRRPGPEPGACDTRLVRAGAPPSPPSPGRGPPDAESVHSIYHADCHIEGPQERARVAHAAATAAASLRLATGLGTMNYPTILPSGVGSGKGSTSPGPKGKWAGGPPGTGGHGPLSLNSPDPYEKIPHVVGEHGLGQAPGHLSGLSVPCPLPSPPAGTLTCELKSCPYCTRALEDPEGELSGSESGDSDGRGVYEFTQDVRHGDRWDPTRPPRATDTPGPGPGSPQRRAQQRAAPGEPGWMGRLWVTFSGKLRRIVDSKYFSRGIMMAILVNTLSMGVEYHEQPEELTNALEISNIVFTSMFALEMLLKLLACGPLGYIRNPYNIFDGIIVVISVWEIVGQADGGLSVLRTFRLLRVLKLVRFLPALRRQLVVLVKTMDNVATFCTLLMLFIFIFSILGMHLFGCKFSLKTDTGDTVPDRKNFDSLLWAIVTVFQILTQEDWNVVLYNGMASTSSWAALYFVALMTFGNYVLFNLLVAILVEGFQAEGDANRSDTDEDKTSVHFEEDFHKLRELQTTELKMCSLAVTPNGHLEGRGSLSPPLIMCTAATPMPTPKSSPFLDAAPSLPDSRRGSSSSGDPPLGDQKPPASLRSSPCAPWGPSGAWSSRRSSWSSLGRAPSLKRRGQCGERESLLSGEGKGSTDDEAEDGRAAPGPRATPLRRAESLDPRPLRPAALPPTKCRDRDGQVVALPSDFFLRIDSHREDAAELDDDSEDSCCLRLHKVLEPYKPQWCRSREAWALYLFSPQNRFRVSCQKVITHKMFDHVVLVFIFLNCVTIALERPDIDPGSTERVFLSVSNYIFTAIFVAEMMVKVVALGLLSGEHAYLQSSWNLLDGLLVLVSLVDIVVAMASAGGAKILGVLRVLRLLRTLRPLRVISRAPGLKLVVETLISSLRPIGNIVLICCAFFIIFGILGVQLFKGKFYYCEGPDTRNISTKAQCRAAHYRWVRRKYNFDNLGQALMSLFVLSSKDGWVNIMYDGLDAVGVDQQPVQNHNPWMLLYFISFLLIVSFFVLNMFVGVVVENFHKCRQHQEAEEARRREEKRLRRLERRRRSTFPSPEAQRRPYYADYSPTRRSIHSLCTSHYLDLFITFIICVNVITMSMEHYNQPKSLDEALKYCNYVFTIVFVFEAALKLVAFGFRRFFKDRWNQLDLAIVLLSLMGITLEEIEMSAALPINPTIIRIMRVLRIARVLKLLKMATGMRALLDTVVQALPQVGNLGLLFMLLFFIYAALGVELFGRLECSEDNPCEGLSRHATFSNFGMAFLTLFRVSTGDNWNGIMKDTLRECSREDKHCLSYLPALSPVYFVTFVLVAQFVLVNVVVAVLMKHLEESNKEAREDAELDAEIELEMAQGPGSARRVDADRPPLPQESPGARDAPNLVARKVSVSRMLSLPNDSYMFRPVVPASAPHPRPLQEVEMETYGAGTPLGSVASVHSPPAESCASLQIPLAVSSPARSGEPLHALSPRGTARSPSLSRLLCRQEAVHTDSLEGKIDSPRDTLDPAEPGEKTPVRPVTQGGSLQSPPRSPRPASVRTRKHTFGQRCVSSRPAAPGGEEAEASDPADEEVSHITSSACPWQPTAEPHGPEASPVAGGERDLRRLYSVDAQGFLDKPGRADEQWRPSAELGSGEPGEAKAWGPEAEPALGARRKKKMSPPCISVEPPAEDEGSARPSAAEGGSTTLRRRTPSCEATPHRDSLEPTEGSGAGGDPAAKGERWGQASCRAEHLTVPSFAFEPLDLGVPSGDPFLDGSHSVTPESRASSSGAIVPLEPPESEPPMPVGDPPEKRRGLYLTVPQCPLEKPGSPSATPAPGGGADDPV
Bcl-2-like protein 1, sequence (Q07817 whole entry): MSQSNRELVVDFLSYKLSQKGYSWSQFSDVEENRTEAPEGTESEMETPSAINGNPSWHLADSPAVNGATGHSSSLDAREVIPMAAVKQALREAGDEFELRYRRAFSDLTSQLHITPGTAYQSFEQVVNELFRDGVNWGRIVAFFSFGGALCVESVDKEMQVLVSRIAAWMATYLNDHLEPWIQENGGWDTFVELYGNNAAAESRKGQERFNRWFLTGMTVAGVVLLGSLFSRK
Luciferin 4-monooxygenase, sequence (P08659 whole entry): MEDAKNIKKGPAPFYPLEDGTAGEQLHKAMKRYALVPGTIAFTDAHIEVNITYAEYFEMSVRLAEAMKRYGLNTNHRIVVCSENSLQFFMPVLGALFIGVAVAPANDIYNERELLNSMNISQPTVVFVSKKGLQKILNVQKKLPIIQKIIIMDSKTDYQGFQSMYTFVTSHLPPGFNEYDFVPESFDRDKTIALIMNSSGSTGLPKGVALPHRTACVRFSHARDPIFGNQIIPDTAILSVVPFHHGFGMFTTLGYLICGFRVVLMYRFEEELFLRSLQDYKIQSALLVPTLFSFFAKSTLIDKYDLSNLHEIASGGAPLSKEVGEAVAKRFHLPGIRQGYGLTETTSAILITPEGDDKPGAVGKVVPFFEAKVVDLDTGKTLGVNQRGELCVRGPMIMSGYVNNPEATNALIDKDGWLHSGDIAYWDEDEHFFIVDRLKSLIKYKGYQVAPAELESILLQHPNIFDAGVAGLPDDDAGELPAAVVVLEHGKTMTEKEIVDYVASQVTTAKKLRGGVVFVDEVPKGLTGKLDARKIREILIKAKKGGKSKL
Tyrosyl-DNA phosphodiesterase 2, sequence (O95551 whole entry): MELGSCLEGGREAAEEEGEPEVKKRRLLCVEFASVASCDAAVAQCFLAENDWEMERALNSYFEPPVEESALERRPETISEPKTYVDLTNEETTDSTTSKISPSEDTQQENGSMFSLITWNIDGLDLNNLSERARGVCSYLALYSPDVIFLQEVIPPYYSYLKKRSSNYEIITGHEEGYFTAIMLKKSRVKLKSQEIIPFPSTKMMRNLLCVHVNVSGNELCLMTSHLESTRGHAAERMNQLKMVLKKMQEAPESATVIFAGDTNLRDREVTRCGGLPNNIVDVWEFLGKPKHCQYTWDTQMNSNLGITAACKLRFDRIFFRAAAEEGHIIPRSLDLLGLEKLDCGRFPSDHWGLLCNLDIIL

With `Cc1ccc2nc(-c3cccc(N)c3)oc2c1` the IC50 [1] was 0.588 µM (active), the EC50 [2] was 9.87 µM (active) and the EC50 (HT-1080) was > 50 µM (not active).
For `CC(=O)Nc1cc(-c2ccc(N3CCN(C)CC3)cc2)cn2c(-c3ccc(F)cc3)cnc12`, the EC50 [3] was > 91.2 µM (inactive) and the EC50 [4] was > 91.2 µM (inactive).
In the case of `CN(C)CC#Cc1cccc(-c2nc(C(=O)NCc3ccc(Oc4ccccc4)cc3)cc3c2[C@@H](CCO)N([S+]([O-])C(C)(C)C)C3)c1` (stereo partly specified), the AC50 [5] is reported as 0.697 µM (active).
With `CN1C(=O)c2cc(NC(=O)C3CC3)ccc2OC[C@@H]2O[C@H](CC(=O)NC3CCC3)CC[C@H]21` the AC50 [6] was 9.32 µM (active).
For `Cc1cccc2cc(CN(Cc3ccco3)C(=O)Nc3cccc(C#N)c3)c(Cl)nc12`, the EC50 [7] was 1.94 µM (active), the IC50 [8] was > 69.5 µM (inactive) and the IC50 [9] was > 69.5 µM (inactive). For the same molecule, the EC50 [10] was 26.5 µM (active) and the EC50 [11] was 6.15 µM (active).
With `C[C@H](CO)N1C[C@H](C)[C@H](CN(C)C(=O)Nc2ccc(C(F)(F)F)cc2)OCCCC[C@H](C)Oc2ccc(NC(=O)CCC(F)(F)F)cc2C1=O` the AC50 [12] was 1.29 µM (active), the AC50 [13] was 35.6 µM (active) and the AC50 [14] was 32.9 µM (active).
With `COc1ccc(-c2[nH]nc(O)c2NC(=O)c2ccc(C)cc2)cc1` the IC50 [15] was > 128 µM (inactive).
With `Cn1cnnc1SCC(=O)Nc1sc2c(c1C(N)=O)CCC2` the IC50 [16] was 2.43 µM (active), the IC50 (Bcl-2-like protein 1) was > 36.3 µM (not active) and the IC50 [17] was 3.16 µM (active). The IC50 [18] was 8.58 µM (active), the IC50 [19] was 2.77 µM (active) and the IC50 [20] was > 66.6 µM (inactive). The IC50 [21] was 13.7 µM (active).
For `CC1CCCCC1n1c(S)nnc1-c1cccnc1` (stereo unspecified), the IC50 (Beta-lactamase [22]) was > 59.6 µM (inactive), the IC50 (Beta-lactamase [23]) was > 59.6 µM (inactive) and the IC50 (Beta-lactamase [24]) was > 59.6 µM (inactive).
